# Tests used:
# [1] = system: electroshock-induced convulsions; assay: inhibition of electroshock-induced convulsions in the mouse; assay type: in vivo, mouse (OF-1); conditions: ip, 1 h, i.p., 60 minutes before shock, read-out: EDmin in the electroshock-induced convulsion test
# Description: E. Swinyard, J. Am. Pharm. Assoc. Scient. Ed. 38, 201 (1949) and J. Pharmacol. Exptl. Therap. 106, 319 (1952)]. In this test groups of 3 mice (18-26 g, OF-1, Sandoz Basle) receive the test substance in a dosage of 3.2-100 mg/kg i.p. After 60 minutes a 50 mA, 200 ms long shock is applied with corneal electrodes smeared with electrolyte jelly. This supra-threshold shock produces tonic extensor convulsions of all extremities. Inhibition of the hindlimb extension is taken as a protective action. After investigation of several dose-levels an EDmin is estimated.
# [2] = system: NMDA (N-Methyl-D-aspartic acid) receptors; assay: inhibition of NMDA-induced depolarizations of the isolated amphibian spinal cord (competitive antagonism); assay type: cell-based, toad or frog; conditions: at 5 μM
# Text: The compounds of the invention further interact with excitatory amino acid systems, in particular they are competitive antagonists of NMDA (N-Methyl-D-aspartic acid) receptors, as indicated by an inhibitory effect on NMDA-induced depolarizations of the isolated amphibian spinal cord. This may be shown in the test performed in conventional manner (see for example D. R. Curtis et al., J. Physiol. (London) 150, 656-682 (1961) and R. H. Evans et al., Br. J. Pharmac. 67, 591-603 (1979) as follows:
# A hemisected proximal part of the spinal cord of a toad or frog lies in a recording chamber being perfused by a Ringer solution (111 mM NaCl, 2 mM KCl, 2 mM CaCl2, 12 mM Glucose, Tris-buffer (pH 7.5, 10 mM). The dorsal root is pulled into the stimulating chambers, the ventral root into the recording chambers. A stimulator connected to the stimulating chambers is used. A DC high impedance preamplifier measures the DC potential between the ground lead sampling the main chamber and one of the recording chambers. The signal from the pre-amplifier is monitored on a CRO to display stimulated synaptic activity (dorsal root--ventral root potential, DR--VRP) or to a chart recorder to display slow changes in potential. […]
# Antagonists are tested in two stages. […] In such cases pA2 values are calculated according to the formula […]
# plasma corticosterone = assay: inhibition of plasma corticosterone rise induced by social stress in mice; assay type: in vivo, mouse (male, OF-1); conditions: 0.3 to 3 mg/kg p.o.
# Description: This can be shown in the following test:
# One day before the experiment a group of 5 male mice (40-50 g, OF-1, Sandoz,Basle) were placed in a transparent makrolon cage Typ 3, which is cut in halves by a grid. The next day each mouse was given an oral dose of 0.3-30 mg/kg of a compound of the invention, Two hours later an isolated male mouse was introduced for 15 minutes into the empty half of the cage and two trained observers recorded the behaviour of the mice in terms of acts such as dig, push-dig and rattle. Blood plasma samples were then taken from the tested mice group and assayed for corticosterone concentrations using a modified method of Paerson-Murphy B. E., J. Clin. Endocrinology 27 (1967) 973-990. The procedure was repeated with a control group of 5 mice which was given only a solvent.
Compound,minimal effective dose [1] [mg/kg],pA2 as NMDA receptor inhibitor [2],inhibition of the rise of plasma-corticosterone (social stress) (plasma corticosterone)
"NC(Cc1cc(CP(=O)(O)O)cc(-c2ccc(Cl)cc2)c1)C(=O)O (racemic) [Example 1, (±)-α-Amino-3-(4'-chloro-5-phosphonomethyl-[1.1'-biphenyl]-3-yl)propanoic acid]",< 50,7.3,
"NC(Cc1cc(CP(=O)(O)O)cc(-c2ccccc2)c1)C(=O)O (single isomer, unassigned) [Example 16, (+)-α-Amino-3-(5-phosphonomethyl-[1.1'-biphenyl]-3-yl) propanoic acid]",,,inhibits significantly
